Laboratory results: patent US8835472B2, “Compounds, pharmaceutical compositions and uses thereof” (Boehringer Ingelheim International GmbH, priority 2010, dated 2014)

Target: human ACC2 (Homo sapiens (Human), UniProt O00763)
Test: ACC2 assay, spectrophotometric 384 well assay (NADH-linked, coupled lactate dehydrogenase/pyruvate kinase reaction)
Format: biochemical
Details: hACC2 construct lacking the 128 N-terminal amino acids; 25° C., 340 nm over 15 minutes
Method in brief: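 Kinetic NADH-linked assay (pyruvate kinase/lactate dehydrogenase coupling) with baculovirus-expressed hACC2 missing its first 128 amino acids. Started with 500 μM ATP and 200 μM each NADH and acetyl-CoA; slope followed 15 min at 25 °C, pH 7.5. No-acetyl-CoA wells define 0%; IC50 by nonlinear regression.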

Chain of human ACC2 (O00763 129-2458): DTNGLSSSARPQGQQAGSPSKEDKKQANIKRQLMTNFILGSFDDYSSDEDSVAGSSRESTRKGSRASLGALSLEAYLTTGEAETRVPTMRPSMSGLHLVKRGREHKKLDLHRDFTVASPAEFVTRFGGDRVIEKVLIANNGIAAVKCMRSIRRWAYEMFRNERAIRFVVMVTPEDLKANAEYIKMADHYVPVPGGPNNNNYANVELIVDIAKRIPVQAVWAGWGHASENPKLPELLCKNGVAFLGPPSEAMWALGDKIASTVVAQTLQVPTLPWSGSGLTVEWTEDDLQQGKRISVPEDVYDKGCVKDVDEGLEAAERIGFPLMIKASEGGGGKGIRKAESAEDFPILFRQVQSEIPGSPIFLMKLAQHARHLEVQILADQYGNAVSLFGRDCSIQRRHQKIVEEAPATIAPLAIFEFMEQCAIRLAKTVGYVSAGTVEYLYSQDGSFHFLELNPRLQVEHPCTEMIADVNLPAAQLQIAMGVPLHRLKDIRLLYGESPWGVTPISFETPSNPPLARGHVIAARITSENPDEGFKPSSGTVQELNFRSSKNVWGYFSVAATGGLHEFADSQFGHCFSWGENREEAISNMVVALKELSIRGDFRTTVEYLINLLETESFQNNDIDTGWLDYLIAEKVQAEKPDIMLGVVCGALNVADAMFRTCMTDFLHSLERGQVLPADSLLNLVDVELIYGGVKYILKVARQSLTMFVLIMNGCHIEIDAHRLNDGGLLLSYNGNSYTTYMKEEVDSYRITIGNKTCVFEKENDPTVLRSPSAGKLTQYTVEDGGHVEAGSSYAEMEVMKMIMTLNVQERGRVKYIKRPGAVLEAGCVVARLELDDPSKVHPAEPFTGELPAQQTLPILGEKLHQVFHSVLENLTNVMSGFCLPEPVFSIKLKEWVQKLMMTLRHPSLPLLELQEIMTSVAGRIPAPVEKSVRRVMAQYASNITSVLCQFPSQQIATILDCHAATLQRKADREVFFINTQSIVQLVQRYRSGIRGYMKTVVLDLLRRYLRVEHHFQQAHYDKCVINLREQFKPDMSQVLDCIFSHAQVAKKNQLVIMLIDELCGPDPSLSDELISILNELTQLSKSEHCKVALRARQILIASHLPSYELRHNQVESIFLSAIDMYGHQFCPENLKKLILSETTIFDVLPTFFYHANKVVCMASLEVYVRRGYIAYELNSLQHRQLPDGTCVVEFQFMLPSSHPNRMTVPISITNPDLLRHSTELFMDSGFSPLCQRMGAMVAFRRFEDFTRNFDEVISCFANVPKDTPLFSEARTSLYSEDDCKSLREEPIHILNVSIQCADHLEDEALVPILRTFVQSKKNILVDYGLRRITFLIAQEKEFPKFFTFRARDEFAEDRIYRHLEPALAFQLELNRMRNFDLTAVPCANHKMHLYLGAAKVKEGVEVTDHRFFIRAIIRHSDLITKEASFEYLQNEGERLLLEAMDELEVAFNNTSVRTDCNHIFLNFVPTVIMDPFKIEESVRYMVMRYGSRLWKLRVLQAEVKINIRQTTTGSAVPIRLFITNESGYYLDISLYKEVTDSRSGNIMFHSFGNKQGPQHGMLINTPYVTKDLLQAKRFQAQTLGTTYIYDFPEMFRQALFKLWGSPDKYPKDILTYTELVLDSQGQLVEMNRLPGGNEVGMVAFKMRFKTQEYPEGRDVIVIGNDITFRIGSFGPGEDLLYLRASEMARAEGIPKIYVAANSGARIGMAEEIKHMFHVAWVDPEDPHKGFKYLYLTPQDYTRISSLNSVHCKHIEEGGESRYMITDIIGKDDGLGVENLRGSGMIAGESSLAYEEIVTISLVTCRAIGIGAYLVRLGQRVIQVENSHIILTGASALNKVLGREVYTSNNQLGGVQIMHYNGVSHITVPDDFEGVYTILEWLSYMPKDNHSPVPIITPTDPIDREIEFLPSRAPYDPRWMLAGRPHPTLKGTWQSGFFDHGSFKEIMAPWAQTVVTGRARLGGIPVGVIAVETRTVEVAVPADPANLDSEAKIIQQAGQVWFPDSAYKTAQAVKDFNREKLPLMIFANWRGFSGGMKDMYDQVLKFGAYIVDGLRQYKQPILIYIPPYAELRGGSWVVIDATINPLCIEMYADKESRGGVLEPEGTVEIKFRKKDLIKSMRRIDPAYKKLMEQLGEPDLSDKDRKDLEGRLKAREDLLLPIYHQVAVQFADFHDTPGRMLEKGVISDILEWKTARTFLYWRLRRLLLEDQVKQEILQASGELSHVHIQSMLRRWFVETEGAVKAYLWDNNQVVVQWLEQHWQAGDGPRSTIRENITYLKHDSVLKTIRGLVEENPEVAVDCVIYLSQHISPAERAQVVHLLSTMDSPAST

SMILES | IC50 [nM]
CCC(C)Nc1ncc(C#Cc2ccc(CC(C)NC(=O)N(C)C)cc2)cn1 (stereo not drawn) [Example 13.25] | 220
CC(=O)NC(C)(C)c1ccc(C#Cc2cnc(OC3CCC3)nc2)cc1 [Example 23.15] | 21500
CC(=O)NC(C)Cc1ccc(C#Cc2cccc3ccccc23)cc1 (stereo not drawn) [Example 1.4] | 2000
CCOc1ccc(C#Cc2ccc(CC(C)NC(=O)C3(C)COC3)cc2)cc1 (stereo not drawn) [Example 4.51] | 510
CCC(COC)Oc1ncc(C#Cc2ccc(CC(C)NC(C)=O)cc2)cn1 (stereo not drawn) [Example 12.37] | 1100
CCOc1ccc(C#Cc2ccc(CC(C)NC(=O)C3CCNC3)cc2)cc1 (stereo not drawn) [Example 4.74] | 2800
CC(=O)NC(C)c1ccc(C#Cc2ccc(OC3CCCC3)nc2)cc1 (stereo not drawn) [Example 2.43] | 450
CC(Cc1ccc(C#Cc2ccc(Oc3cncnc3)cc2)cc1)NC(=O)C1CC1 (stereo not drawn) [Example 23.11] | 1400
CC(Cc1ccc(C#Cc2ccc(Oc3ccccc3)nc2)cc1)NC(=O)C1CC1 (stereo not drawn) [Example 14.43] | 360
CC(=O)NC(C)Cc1ccc(C#Cc2ccnc(N3CCCCC3)n2)cc1 (stereo not drawn) [Example 11.38] | 430
CC(=O)NC(C)Cc1ccc(C#Cc2cnc(NCc3cnn(C)c3)nc2)cc1 (stereo not drawn) [Example 13.61] | 3800
CC(=O)NC(C)Cc1ccc(C#Cc2ccc(C(=O)O)cc2)cc1 (stereo not drawn) [Example 1.5] | 2400
CC(=O)NC(C)Cc1ccc(C#Cc2cnc(OC3CCCC3)nc2)cc1 (stereo not drawn) [Example 27.1, N-{2-[4-(2-Cyclopentyloxy-pyrimidin-5-ylethynyl)-phenyl]-1-methyl-ethyl}-acetamide] | 200
CC(=O)NC(C)Cc1ccc(C#Cc2ccc(CN3CCCC3)cc2)cc1 (stereo not drawn) [Example 2.12] | 6700
CC(=O)NC(C)Cc1ccc(C#Cc2cnc(OCc3cccnc3)nc2)cc1 (stereo not drawn) [Example 12.56] | 4900
CCOc1ccc(C#Cc2ccc(CC(C)NC(=O)c3cnco3)cc2)cc1 (stereo not drawn) [Example 4.38] | 170
CC(=O)NC(C)Cc1ccc(C#Cc2ccc(OC3CNC3)cc2)cc1 (stereo not drawn) [Example 9.10] | 12200

SMILES | IC50 [nM]
CC(=O)NC(C)Cc1ccc(C#Cc2cnc(OC(C)C(F)(F)F)nc2)cc1 (stereo not drawn) [Example 12.38] | 260
CCNC(=O)NC(C)Cc1ccc(C#Cc2ccc(OCC)cc2)cc1 (stereo not drawn) [Example 6.3] | 230
CCOc1ccc(C#Cc2ccc(CC(C)NC(=O)C(O)C(C)C)cc2)cc1 (stereo not drawn) [Example 4.30] | 1700
CC(Cc1ccc(C#Cc2ccc(OC(C)C)nc2)cc1)NC(=O)C1CC1 (stereo not drawn) [Example 2.65] | 480
CCOc1ccc(C#Cc2ccc(CC(C)NC(=O)c3cnc[nH]3)cc2)cc1 (stereo not drawn) [Example 4.66] | 4700
CC(=O)NC(C)Cc1ccc(C#Cc2cnc(OCC(C)(F)F)nc2)cc1 (stereo not drawn) [Example 12.43] | 2600
CCC(COC)Oc1ccc(C#Cc2ccc(CC(C)NC(C)=O)cc2)cc1 (stereo not drawn) [Example 9.35] | 660
CC(Cc1ccc(C#Cc2cnc(OC3CCC3)nc2)cc1)NC(=O)C1CC1 (stereo not drawn) [Example 12.22] | 640
CCOc1ncc(C#Cc2ccc(CC(C)NC(C)=O)cc2)cn1 (stereo not drawn) [Example 12.17] | 380
CCCCC(=O)NC(C)Cc1ccc(C#Cc2ccc(OCC)cc2)cc1 (stereo not drawn) [Example 4.25] | 540
CCOc1ccc(C#Cc2ccc(CC(C)NC(=O)c3ccccc3)cc2)cc1 (stereo not drawn) [Example 4.19] | 2800
CC(=O)NC(C)Cc1ccc(C#Cc2ccc(C(=O)N3CCCCC3)cc2)cc1 (stereo not drawn) [Example 8.1, N-(1-(4-((4-(piperidine-1-carbonyl)phenyl)ethynyl)phenyl)propan-2-yl)acetamide] | 500
CCCn1ccc(C#Cc2ccc(CC(C)NC(C)=O)cc2)cc1=O (stereo not drawn) [Example 14.5] | 4100
COc1ccc(CNc2ncc(C#Cc3ccc(CC(C)NC(C)=O)cc3)cn2)cc1 (stereo not drawn) [Example 13.86] | 120
CNc1ncc(C#Cc2ccc(CC(C)NC(C)=O)cc2)cn1 (stereo not drawn) [Example 13.60] | 250
CC(=O)NC(C)Cc1ccc(C#Cc2cnc(NC(C)C(C)C)nc2)cc1 (stereo not drawn) [Example 13.11] | 230
